US6797672B2, “Fungicidal compositions based on fludioxonil” (Syngenta Crop Protection, Inc., priority 2003, dated 2004)
Read-outs that look alike come from different tables or passages of the source.

System: Botrytis cinerea
Experiment: Efficacy against Botrytis cinerea on apple (fruit cv. Golden Delicious)
Format: in vivo
Conditions: 120 h, read-out: % activity observed
Text: A synergistic effect exists whenever the action of an active ingredient combination is greater than the sum of the actions of the individual components.
The action to be expected E for a given active ingredient combination obeys the so-called COLBY formula and can be calculated as follows (COLBY, S. R. “Calculating synergistic and antagonistic responses of herbicide combination”. Weeds, Vol. 15, pages 20-22; 1967):
ppm=milligrams of active ingredient (=a.i.) per litre of spray mixture
X=% action by active ingredient I using p ppm of active ingredient
Y=% action by active ingredient II using q ppm of active ingredient.
According to Colby, the expected (additive) action of active ingredients I+II using p+q ppm of active ingredient is [formula]
If the action actually observed (O) is greater than the expected action (E), then the action of the combination is superadditive, i.e. there is a synergistic effect.
In an apple fruit cv. Golden Delicious 3 holes were drilled and each filled with 50 μl droplets of the formulated test composition. Two hours after application 50 μl of a spore suspension of B. cinerea (4×10^5 conidia/ml) were pipetted on the application sites. After an incubation period of 5 days at 20° C. in a growth chamber the % infected fruit area was determined. The activity was calculated relative to the disease rate on untreated apple fruits. The fungicide interactions in the mixture were calculated according to Colby.

Row | SMILES | inhibition at 0.1 µg/mL [%] | inhibition at 0.5 µg/mL [%] | inhibition at 2.5 µg/mL [%] | inhibition at 5 µg/mL [%] | inhibition at 0.5 µg/mL (Thiabendazole 0.5 mg a.i./l, apple, 5 days at 20° C.) [%] | inhibition at 1 µg/mL (Thiabendazole 1 mg a.i./l, apple, 5 days at 20° C.) [%] | inhibition at 2.5 µg/mL (Thiabendazole 2.5 mg a.i./l, apple, 5 days at 20° C.) [%] | inhibition at 5 µg/mL (Thiabendazole 5 mg a.i./l, apple, 5 days at 20° C.) [%] | inhibition at 25 µg/mL (Thiabendazole 25 mg a.i./l, apple, 5 days at 20° C.) [%]
1 | N#Cc1c[nH]cc1-c1cccc2c1OC(F)(F)O2 [Fludioxonil, 4-(2,2-difluoro-1,3-benzodioxol-7-yl)pyrrole-3-carbonitrile] | 2 | 24 | 54 | 67 | – | – | – | – | –
2 | c1ccc2[nH]c(-c3cscn3)nc2c1 [Thiabendazole, 2-(thiazol-4-yl)benzimidazol] | – | – | – | – | 5 | 10 | 10 | 12 | 5
